According to US20250049840A1, “COMPOSITIONS COMPRISING A CHEMOKINE RECEPTOR PATHWAY INHIBITOR” (DIMERIX BIOSCIENCE PTY LTD, priority 2022, published 2025):
“Also recorded” adds a separate entry of the source.

Assays:
[1] = In Use stability study: repagermanium IR capsules reconstituted in water in a medical pot, with or without nasogastric tube (assay, appearance, pH); type: physicochemical; details: reconstituted in 15 ml water in a medical pot, up to 3 h (180 minutes)
Protocol: An In Use stability study was performed to determine the reconstitution and dosage information for administration of repagermanium IR capsules via nasogastric feeding tube. The objective of the study was to: • 1. measure the stability of the repagermanium drug product composition once reconstituted in water for administration via a gastric tube, • 2. determine if there is any residual repagermanium remaining in the medicine pot after the first 15 mL solution has been removed, and • 3. identify if additional flushing of the nasogastric tube will be required to deliver the correct dose of repagermanium. There were 6 experiments in total. Each experiment was performed in duplicate (except for micro tests). [table]

MCP-1 = MCP-1 (Homo sapiens, UniProt P13500); details: Yokochi (2001); Yamada (2004); cited from earlier work
Chain of MCP-1 (P13500 24-99, species assumed): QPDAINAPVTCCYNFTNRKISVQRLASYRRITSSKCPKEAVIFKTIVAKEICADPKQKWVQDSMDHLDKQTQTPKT

monocytes = details: Yokochi (2001); Yamada (2004); cited from earlier work

| SMILES | chemical and microbiological stability after reconstitution [1] | inhibition of MCP-1 binding (MCP-1) | inhibition of in vitro chemotactic migration of monocytes by MCP-1 (monocytes) |
| --- | --- | --- | --- |
| O=C(O)C[CH2][Ge](=[O])[O][Ge](=[O])[CH2]CC(=O)O [repagermanium, 3-[(2-carboxyethyl-oxogermyl)oxy-oxogermyl] propanoic acid] | chemically and microbiologically stable |  |  |
| O=C(O)C[CH2][Ge](=[O])[O][Ge](=[O])[CH2]CC(=O)O [Propagermanium, 3-[(2-carboxyethyl-oxogermyl)oxy-oxogermyl] propanoic acid] |  | does not inhibit MCP-1 binding | specifically inhibit in vitro chemotactic migration of monocytes by MCP-1; also recorded: inhibits in-vitro chemotactic migration of monocytes by MCP-1 |
